Experimental data published in the NIST ThermoML archive (doi:10.1021/acs.jced.6b00139).
± gives the expanded uncertainty stated by the source.

Details: Liquid, Ebulliometric method (Recirculating still)

O=CO [formic acid]
vapor or sublimation pressure (388.15 K): 153.7 ± 1 kPa
vapor or sublimation pressure (398.15 K): 200.6 ± 1 kPa
